Reference: patent US20230277612A1, “SAPONIN DERIVATIVES FOR USE IN MEDICINE” (priority 2020, published 2023)
pIC50: −log10 of the molar value. Several values for one entry are separate records, joined by “and”; a condition that tells them apart may be missing. Identical values can stand only once. Like-named read-outs stand apart in the source and are kept apart here.

Legend:
[1] = Critical micellar concentration (CMC) by ANS fluorescence; format: physicochemical; conditions: for CMC: Table A7, determined in PBS
Protocol: The critical micellar concentration (CMC) of saponins derived from Saponaria officinalis (SO) (Table A7) and derived from Quillaja saponaria (QS) (Table A8, and Table A9) was determined by the method of DeVendittis et al. (A fluorimetric method for the estimation of the critical micelle concentration of surfactants, Analytical Biochemistry, Volume 115, Issue 2, August 1981, Pages 278-286) as follows:
(§1) The emission spectrum of 8-Anilinonaphthalene-1-sulfonic acid (ANS) in either purified water (MQ) or PBS (Dulbecco's PBS+/+) was determined at dry weight concentrations of saponins ranging from 1 to 1400 pM to cover the range below and above the CMC. Above the CMC, the fluorescence yield of ANS increases and the wavelength of maximum emission decreases due to portioning of the fluorescent dye into micelles. Fluorescence yields were recorded on a Fluoroskan Ascent FL (Thermo Scientific) at an excitation wavelength of 355 nm, and an emission wavelength of 460 nm. 6 μg at a concentration of 75.86 pM of ANS were used per sample and measurement.
The critical micellar concentration (CMC) of saponins was determined by the method of DeVendittis et al. (A fluorimetric method for the estimation of the critical micelle concentration of surfactants, Analytical Biochemistry, Volume 115, Issue 2, August 1981, Pages 278-286) as follows:
as §1, with “μM” for “pM”

HeLa cells = assay: cells; format: cell-based; conditions: for pIC50: saponin alone, read-out: IC50 toxicity
Protocol: (§2) (FIGS. 66a and 66B). Next toxicity was determined, for this the modified saponins were titrated on HeLa and A431 cells. […] Next toxicity was determined, for this the modified saponins were titrated on HeLa and A431 cells.

human red blood cells = assay: cells; format: cell-based; conditions: for pIC50: read-out: IC50 hemolytic activity
Protocol: Red blood cells (RBCs) were isolated from a buffy coat using a Ficoll gradient. The obtained RBC pellet (˜4-5 ml) was washed 2× with 50 ml DPBS (without Ca^2+/Mg^2+, PAN-Biotech GmbH). Cells were pelleted by centrifugation for 10 min, 800×g at RT. RBC were counted and resuspended at 500.000.000 c/ml in DPBS (without Ca^2+/Mg^2+), based on total cell count.
(§3) Saponin dilutions were prepared in DPBS (with Ca^2+/Mg^2+, PAN-Biotech GmbH), at 1.11× final strength. For positive lysis control a 0.02% Triton-X100 solution was prepared in DPBS^+/+. Of all compound solutions 135 μl was dispensed/well in a 96 well V-bottom plate. To this 15 μl RBC suspension was added and mixed shortly (10 sec-600 rpm). The plate was incubated 30 min at RT, with gentle agitation. Afterwards the plate was spun for 10 min at 800×g to pellet the RBC and 100-120 μl supernatant was transferred to a standard 96 wp (96 well-plate).
as §3, with “DPBS+/+.” for “DPBS^+/+.”

[2] = test system: EGFR expressing cells (A431); format: cell-based; conditions: for pIC50: A431, + 5 pM EGFdianthin, read-out: IC50 endosomal escape enhancing activity
[3] = test system: EGFR expressing cells (HeLa); format: cell-based; conditions: for pIC50: HeLa, read-out: IC50 endosomal escape enhancing activity; for IC50: HeLa cells, read-out: IC50 nM (Activity)
A431 cells = assay: cells; format: cell-based; conditions: for IC50: read-out: IC50 nM (Toxicity); for pIC50: saponin alone, read-out: IC50 toxicity
Protocol: as §2

[4] = Table A12, read-out: IC50 nM (Toxicity)
[5] = Table A5, saponin titrated + 5 pM EGFdianthin
[6] = Table A5, saponin alone, read-out: IC50 nM (Toxicity)
[7] = Table A5, read-out: IC50 nM (hemolysis)
[8] = Table A6, read-out: IC50 nM (hemolysis)
[9] = Homo sapiens, HeLa, Table A5, saponin alone, read-out: IC50 nM (Toxicity)

## CC(=O)OC1C(C)OC(OC2C(C)OC(OC(=O)C34CCC(C)(C)CC3C3=CCC5C6(C)CCC(OC7OC(C(=O)O)C(O)C(OC8OCC(O)C(O)C8O)C7OC7OC(CO)C(O)C(O)C7O)C(C)(C=NNC(=O)CCCCCN7C(=O)C=CC7=O)C6CCC5(C)C3(C)CC4O)C(OC3OC(C)C(OC4OCC(O)C(OC5OC(CO)C(O)C(O)C5O)C4O)C(O)C3O)C2O)C(O)C1OC1OCC(O)C(O)C1O (centres unmarked) [Molecule 2]
[1]
  CMC compared to corresponding underivatised saponin: increased CMC

## CC[C@H](C)[C@H](C[C@H](O)CC(=O)OC1C(C)OC(OC(=O)[C@]23CCC(C)(C)CC2C2=CCC4[C@@]5(C)CC[C@H](OC6OC(C(=O)NC(C)(CO)CO)C(O)C(OC7OCC(O)C(O)C7O)C6OC6OC(CO)C(O)C(O)C6O)[C@@](C)(/C=N/NC(=O)CCCCCN6C(=O)C=CC6=O)C5CC[C@@]4(C)[C@]2(C)C[C@H]3O)C(OC2OC(C)C(OC3OCC(O)C(OC4OCC(O)(CO)C4O)C3O)C(O)C2O)C1O)OC(=O)C[C@@H](O)C[C@H](OC1OC(CO)C(O)C1O)[C@@H](C)CC (some centres unmarked) [QS21-(Ald-EMCH)-(Glu-AMPD)]
HeLa cells; [4]
  IC50: > 30000 nM
Human red blood cells; Table A12, read-out: IC50 nM (hemolysis)
  IC50: > 300000 nM
Human red blood cells
  pIC50: < 3.52

## CC[C@H](C)[C@H](C[C@H](O)CC(=O)OC1C(C)OC(OC(=O)[C@]23CCC(C)(C)CC2C2=CCC4[C@@]5(C)CC[C@H](OC6OC(C(=O)O)C(O)C(OC7OCC(O)C(O)C7O)C6OC6OC(CO)C(O)C(O)C6O)[C@@](C)(/C=N/NC(=O)CCCCCN6C(=O)C=CC6=O)C5CC[C@@]4(C)[C@]2(C)C[C@H]3O)C(OC2OC(C)C(OC3OCC(O)C(OC4OCC(O)(CO)C4O)C3O)C(O)C2O)C1O)OC(=O)C[C@@H](O)C[C@H](OC1OC(CO)C(O)C1O)[C@@H](C)CC (some centres unmarked) [QS21-Ald-EMCH]
[2]
  pIC50: 6.05
[3]; + 5 pM EGFdianthin
  pIC50: 6.05
HeLa cells; [4]
  IC50: > 30000 nM

## CC(=O)OC1C(C)OC(OC2C(C)OC(OC(=O)[C@]34CCC(C)(C)CC3C3=CCC5[C@@]6(C)CC[C@H](OC7OC(C(=O)O)C(O)C(OC8OCC(O)C(O)C8O)C7OC7OC(CO)C(O)C(O)C7O)[C@@](C)(C=O)C6CC[C@@]5(C)[C@]3(C)C[C@H]4O)C(OC3OC(C)C(OC4OCC(O)C(OC5OCC(O)C(O)C5O)C4O)C(O)C3O)C2O)C(O)C1OC1OCC(O)C(O)C1O (some centres unmarked) [SO1832, reference compound]
Human red blood cells
  pIC50: ~5.00

## CC1OC(OC2C(C)OC(OC(=O)C34CCC(C)(C)CC3C3=CCC5C6(C)CCC(OC7OC(C(=O)NC(C)(CO)CO)C(O)C(OC8OCC(O)C(O)C8O)C7OC7OC(CO)C(O)C(O)C7O)C(C)(C=NNC(=O)CCCCCN7C(=O)C=CC7=O)C6CCC5(C)C3(C)CC4O)C(OC3OC(C)C(OC4OCC(O)C(OC5OC(CO)C(O)C(O)C5O)C4O)C(O)C3O)C2O)C(O)C(OC2OCC(O)C(O)C2O)C1O (centres unmarked) [SO1861-(Ald-EMCH)-(Ac—OH)-(Glu-AMPD)]
[2]; Table A6, A431 cells, saponin titrated + 5 pM EGFdianthin, read-out: IC50 nM (Activity)
  IC50: > 20000 nM
[3]; [5]
  IC50: > 20000 nM
HeLa cells; [6]
  IC50: > 100000 nM
A431 cells; Table A6, saponin alone
  IC50: > 100000 nM
Human red blood cells; [7]
  IC50: > 1e+06 nM
Human red blood cells; [8]
  IC50: > 1e+06 nM

## CC(=O)OC1C(C)OC(OC2C(C)OC(OC(=O)C34CCC(C)(C)CC3C3=CCC5C6(C)CCC(OC7OC(C(=O)NC(C)(CO)CO)C(O)C(OC8OCC(O)C(O)C8O)C7OC7OC(CO)C(O)C(O)C7O)C(C)(C=NNC(=O)CCCCCN7C(=O)C=CC7=O)C6CCC5(C)C3(C)CC4O)C(OC3OC(C)C(OC4OCC(O)C(OC5OC(CO)C(O)C(O)C5O)C4O)C(O)C3O)C2O)C(O)C1OC1OCC(O)C(O)C1O (centres unmarked) [SO1861-(Ald-EMCH)-(Glu-AMPD)]
HeLa cells; [6]
  IC50: > 100000 nM
A431 cells; Table A6, saponin alone
  IC50: > 100000 nM
Human red blood cells; [7]
  IC50: > 1e+06 nM
Human red blood cells; [8]
  IC50: > 1e+06 nM
[1]
  CMC: >30 µM

## CC1OC(OC2C(C)OC(OC(=O)[C@]34CCC(C)(C)CC3C3=CCC5[C@@]6(C)CC[C@H](OC7OC(C(=O)O)C(O)C(OC8OCC(O)C(O)C8O)C7OC7OC(CO)C(O)C(O)C7O)[C@@](C)(CO)C6CC[C@@]5(C)[C@]3(C)C[C@H]4O)C(OC3OC(C)C(OC4OCC(O)C(OC5OC(CO)C(O)C(O)C5O)C4O)C(O)C3O)C2O)C(O)C(OC2OCC(O)C(O)C2O)C1O (some centres unmarked) [SO1861-(Ald-OH)-(Ac—OH)]
HeLa cells; [6]
  IC50: > 100000 nM
A431 cells; Table A6, saponin alone
  IC50: > 100000 nM
Human red blood cells; [7]
  IC50: 200000 nM
Human red blood cells; [8]
  IC50: 200000 nM
Human red blood cells
  pIC50: 3.70
[1]
  CMC: >280 µM

## CC(=O)OC1C(C)OC(OC2C(C)OC(OC(=O)[C@]34CCC(C)(C)CC3C3=CCC5[C@@]6(C)CC[C@H](OC7OC(C(=O)NC(C)(CO)CO)C(O)C(OC8OCC(O)C(O)C8O)C7OC7OC(CO)C(O)C(O)C7O)[C@@](C)(CO)C6CC[C@@]5(C)[C@]3(C)C[C@H]4O)C(OC3OC(C)C(OC4OCC(O)C(OC5OC(CO)C(O)C(O)C5O)C4O)C(O)C3O)C2O)C(O)C1OC1OCC(O)C(O)C1O (some centres unmarked) [SO1861-(Ald-OH)-(Glu-AMPD)]
[2]
  pIC50: 5.40
[3]; + 5 pM EGFdianthin
  pIC50: 5.40
HeLa cells; [6]
  IC50: > 100000 nM
A431 cells; Table A6, saponin alone
  IC50: > 100000 nM
[1]
  CMC: 50 ± 5 µM

## CC(=O)OC1C(C)OC(OC2C(C)OC(OC(=O)[C@]34CCC(C)(C)CC3C3=CCC5[C@@]6(C)CC[C@H](OC7OC(C(=O)O)C(O)C(OC8OCC(O)C(O)C8O)C7OC7OC(CO)C(O)C(O)C7O)[C@@](C)(/C=N/NC(=O)CCCCCN7C(=O)C[C@H](SCCO)C7=O)C6CC[C@@]5(C)[C@]3(C)C[C@H]4O)C(OC3OC(C)C(OC4OCC(O)C(OC5OC(CO)C(O)C(O)C5O)C4O)C(O)C3O)C2O)C(O)C1OC1OCC(O)C(O)C1O (some centres unmarked) [SO1861-Ald-EMCH-blocked]
HeLa cells; [9]
  IC50: > 100000 nM
HeLa cells; Homo sapiens, HeLa
  pIC50: < 4.00
Human red blood cells; Homo sapiens, Erythrocyte, Table A5, read-out: IC50 nM (hemolysis)
  IC50: 300000 nM
Human red blood cells; Homo sapiens, Erythrocyte, Table A6, read-out: IC50 nM (hemolysis)
  IC50: 300000 nM
Human red blood cells; Homo sapiens, Erythrocyte
  pIC50: 3.52
[1]
  CMC: 50 ± 5 µM

## CC(=O)OC1C(C)OC(OC2C(C)OC(OC(=O)[C@]34CCC(C)(C)CC3C3=CCC5[C@@]6(C)CC[C@H](OC7OC(C(=O)NCCN8C(=O)C=CC8=O)C(O)C(OC8OCC(O)C(O)C8O)C7OC7OC(CO)C(O)C(O)C7O)[C@@](C)(C=O)C6CC[C@@]5(C)[C@]3(C)C[C@H]4O)C(OC3OC(C)C(OC4OCC(O)C(OC5OC(CO)C(O)C(O)C5O)C4O)C(O)C3O)C2O)C(O)C1OC1OCC(O)C(O)C1O (some centres unmarked) [SO1861-Glu-AEM]
HeLa cells; [9]
  IC50: > 100000 nM
HeLa cells; Homo sapiens, HeLa
  pIC50: < 4.00
A431 cells; Homo sapiens, A-431, Table A6, saponin alone
  IC50: > 100000 nM
A431 cells; Homo sapiens, A-431, text
  pIC50: < 4.00
[1]
  CMC: 45 ± 5 µM

## CC(=O)OC1C(C)OC(OC2C(C)OC(OC(=O)[C@]34CCC(C)(C)CC3C3=CCC5[C@@]6(C)CC[C@H](OC7OC(C(=O)NC(C)(CO)CO)C(O)C(OC8OCC(O)C(O)C8O)C7OC7OC(CO)C(O)C(O)C7O)[C@@](C)(C=O)C6CC[C@@]5(C)[C@]3(C)C[C@H]4O)C(OC3OC(C)C(OC4OCC(O)C(OC5OC(CO)C(O)C(O)C5O)C4O)C(O)C3O)C2O)C(O)C1OC1OC(C)C(O)C(O)C1O (some centres unmarked) [SO1861-Glu-AMPD]
[1]
  CMC: 50 ± 5 µM

## Aescin [reference compound]
HeLa cells; [4]
  IC50: > 30000 nM
A431 cells
  pIC50: < 4.52
Human red blood cells
  pIC50: 5.00

## QS21 [reference compound]
[2]
  pIC50: 7.05
[3]; + 5 pM EGFdianthin
  pIC50: 6.70
[3]; [5]
  IC50: 200 nM
[3]; Table A12, + 5 pM EGFdianthin
  IC50: 200 nM
HeLa cells
  pIC50: 5.22 and 5.00
